Columns and labels:
SMSr-V5 = molecular target: T1, SMSr-V5 (Homo sapiens, UniProt Q96LT4); assay: anti-V5 immunoprecipitate, […]:1-DG quantified by LC-MS/MS; format: biochemical
T1 construct: gene SAMD8
T1 sequence (Q96LT4 1-415): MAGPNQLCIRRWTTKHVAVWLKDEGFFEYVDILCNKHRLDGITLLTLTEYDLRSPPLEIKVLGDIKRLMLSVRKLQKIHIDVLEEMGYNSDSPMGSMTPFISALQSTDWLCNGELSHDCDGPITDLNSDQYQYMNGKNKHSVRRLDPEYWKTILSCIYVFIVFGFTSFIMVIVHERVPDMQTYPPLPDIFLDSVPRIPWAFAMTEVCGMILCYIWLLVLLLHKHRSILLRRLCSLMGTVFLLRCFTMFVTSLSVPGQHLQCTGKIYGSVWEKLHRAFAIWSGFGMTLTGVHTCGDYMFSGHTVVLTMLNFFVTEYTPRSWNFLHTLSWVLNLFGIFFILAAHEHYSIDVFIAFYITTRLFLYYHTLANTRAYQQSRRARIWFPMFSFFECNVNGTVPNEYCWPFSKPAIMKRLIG

[1] = substrate: CCCCCCCC/C=C\CCCCCCCC(=O)O[C@H](COC(=O)CCCCCCCCCCCCCCC)COP(=O)(O)O; assay: DDM/CHS mixed micellar assay, DG quantified by LC-MS/MS; format: biochemical, Homo sapiens; details: PAP activity, no ceramide, pH 7.4, 37 °C, 2 h, 0.1% DDM, 0.02% CHS, surface-dilution Km also printed as 3.92 ± 0.536 mol%
From the text: DDM/CHS mixed micellar assay, DG quantified by LC-MS/MS on 6× His-SMSr-ΔSAMD

Molecule: CCCCCCCC/C=C\CCCCCCCC(=O)O[C@H](COC(=O)CCCCCCCCCCCCCCC)COP(=O)(O)O[C@@H]1[C@H](O)[C@H](O)[C@@H](O)[C@H](O)[C@H]1O [16:0/18:1-PI, 1-palmitoyl-2-oleoyl-sn-glycero-3-phosphoinositol]
- anti-V5 immunoprecipitate, 16:0/18:1-DG quantified by LC-MS/MS (SMSr-V5; PI-PLC activity): The SMSr expressed in the COS-7 cells exhibited PAP and PI-PLC activities

Molecule: CCCCCCCC/C=C\CCCCCCCC(=O)O[C@H](COC(=O)CCCCCCCCCCCCCCC)COP(=O)(O)O [16:0/18:1-PA, 1-palmitoyl-2-oleoyl (16:0/18:1)-PA]
- anti-V5 immunoprecipitate, 16:0/18:1-DG quantified by LC-MS/MS (SMSr-V5; PAP activity): The SMSr expressed in the COS-7 cells exhibited PAP and PI-PLC activities

B1: 6× His-SMSr-ΔSAMD (Homo sapiens) (protein)
chain: HIDVLEEMGYNSDSPMGSMTPFISALQSTDWLCNGELSHDCDGPITDLNSDQYQYMNGKNKHSVRRLDPEYWKTILSCIYVFIVFGFTSFIMVIVHERVPDMQTYPPLPDIFLDSVPRIPWAFAMTEVCGMILCYIWLLVLLLHKHRSILLRRLCSLMGTVFLLRCFTMFVTSLSVPGQHLQCTGKIYGSVWEKLHRAFAIWSGFGMTLTGVHTCGDYMFSGHTVVLTMLNFFVTEYTPRSWNFLHTLSWVLNLFGIFFILAAHEHYSIDVFIAFYITTRLFLYYHTLANTRAYQQSRRARIWFPMFSFFECNVNGTVPNEYCWPFSKPAIMKRL
- Km [1]: 97.4 ± 13.3 µM

Reference: article PMC7988496, “Sphingomyelin synthase-related protein generates diacylglycerol via the hydrolysis of glycerophospholipids in the absence of ceramide” (The Journal of Biological Chemistry, 2021)
